Source: patent publication US20190091259A1, “Selective Chemotherapy Treatments and Diagnostic Methods Related Thereto” (Emory University, priority 2014, published 2019)

How the values were obtained:
H146 = experiment: In vitro cytotoxicity assay, cisplatin sensitivity, H146; format: cell-based; settings: H146 cell line; read-out: IC50 concentration
H128 = experiment: In vitro cytotoxicity assay, cisplatin sensitivity, H128; format: cell-based; settings: H128 cell line; read-out: IC50 concentration
SCLC cell lines [1] = system: SCLC cell lines
[2] = Veliparib pharmacokinetic and platinum adducts in tumor-bearing animals; format: in vivo
Description: Treated animals were sacrificed either at 1 or 24 h posttreatment by cervical dislocation. Plasma and tumor samples were collected and immediately stored in liquid phase nitrogen or at −70° C. until ready for analysis. Tissues were homogenized in approximately 1 mL of PBS. Veliparib concentrations in plasma and tissue homogenates were quantitated by LC-MS. Concentrations of total platinum in plasma and tissue homogenate were quantitated by atomic absorption spectrophotometry (AAS).

PARylated proteins = experiment: Level of PARylated proteins in treated cells; format: cell-based; settings: veliparib 5 μmol/L
H146 xenografts = format: in vivo
SCLC cell lines [3] = experiment: Short-term MTS cytotoxicity assay in a panel of 9 SCLC cell lines; settings: for single-agent growth inhibition: veliparib 0-128 μmol/L, panel of 9 SCLC cell lines

`N.N.[Cl][Pt][Cl]` [cisplatin] gave an IC50 (H146) of 5.2 µM and an IC50 (H128) of 14.5 µM.

In the case of `COc1cc([C@@H]2c3cc4c(cc3[C@@H](O[C@@H]3O[C@@H]5CO[C@@H](C)O[C@H]5[C@H](O)[C@H]3O)[C@H]3COC(=O)[C@H]23)OCO4)cc(OC)c1O` [etoposide], the “correlation (CC) of the magnitude of potentiation by veliparib and the sensitivity of the cell line to the cytotoxic agent (single agent IC50)” value (SCLC cell lines [1]) is reported as 0.24.

With `C[C@]1(c2nc3c(C(N)=O)cccc3[nH]2)CCCN1` [veliparib] the intratumoral platinum concentration ([2]; in the presence of veliparib) was “Increased intratumoral platinum concentration”, the “intratumoral veliparib concentration sufficient for in vivo potentiation of the antitumor effect of cisplatin” value ([2]; tumor) was 2 µmol/L and the “level of PARylated proteins in cells” value (PARylated proteins) was “significant reduction”. For the same compound, the “dose dependence of the potentiating effect of veliparib when combined with cisplatin” value (H146 xenografts; FIG. 2B) was “appeared dose dependent”, the “toxicity as indicated by the measured weight of the animals” value (H146 xenografts; veliparib combined with cisplatin) was “without additive toxicity” and the single-agent growth inhibition (SCLC cell lines [3]) was “limited single-agent activity”. For the same compound, the single-agent growth inhibition (SCLC cell lines [3]; listed as Veliparib) was “limited growth inhibition” and the “potentiated the activity of cisplatin, carboplatin, and etoposide” value (SCLC cell lines [3]; veliparib 5 μmol/L) was “not”.
